Laboratory results: patent US6251893A, “Bicyclic piperidine and piperazine compounds having 5-HT6 receptor affinity” (NPS Allelix Corp., priority 1998, dated 2001)

Experiments:
human 5HT6 receptor [1] = molecular target: T1, human 5HT6 receptor (Homo sapiens, UniProt P50406); experiment: Functional assay: reversal of serotonin-stimulated adenyl cyclase activity (cAMP) in HEK 293 cells stably expressing the human 5HT6 receptor; format: cell-based; parameters: cAMP functional assay in whole cells; conditions: 100 nM and 10 μM test compound with serotonin
T1 sequence (P50406 whole entry): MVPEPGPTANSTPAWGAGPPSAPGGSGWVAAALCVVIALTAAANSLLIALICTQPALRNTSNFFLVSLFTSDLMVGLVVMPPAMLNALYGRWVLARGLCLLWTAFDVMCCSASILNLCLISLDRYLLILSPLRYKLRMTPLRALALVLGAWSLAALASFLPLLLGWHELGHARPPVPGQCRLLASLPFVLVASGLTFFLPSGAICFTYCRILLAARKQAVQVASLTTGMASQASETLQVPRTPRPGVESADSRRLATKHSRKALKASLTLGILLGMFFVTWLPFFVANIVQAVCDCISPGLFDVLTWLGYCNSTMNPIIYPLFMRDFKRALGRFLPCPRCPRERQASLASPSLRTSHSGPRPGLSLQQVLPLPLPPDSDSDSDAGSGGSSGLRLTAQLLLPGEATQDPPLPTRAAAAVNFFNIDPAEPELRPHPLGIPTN
Procedure: The 5HT6 receptor responds to serotonin and other agonists by increasing adenyl cyclase mediated production of cyclic AMP. Particular test compounds were assayed for their effect on adenyl cyclase activity using the procedure described below.
Compounds acting as antagonists at the 5HT6 receptor will antagonize the agonist effect of serotonin and thus, will block the serotonin-inducedincrease in adenyl cyclase activity.
HEK 293 cells stably expressing the human 5HT6 receptor were plated in 6 well plates in DMEM (Dulbecco's Modified Eagle Medium)/F12 (Nutrient Mixture F12-Ham) media with 10% FCS (fetal calf serum) and G418 (Geneticen Disulfate, 500 ug/ml), and incubated at 37° C. in a CO2 incubator. The cells were allowed to grow to about 70% confluence before use in the assay.
The culture medium of each well was removed, and the wells were washed once with serum free media. Then 2 ml of SFM+IBMX medium (SFM with 0.5 mM IBMX, 3-isobutyl-1-methylxanthine, 0.1% ascorbic acid and 10 mM pargyline) was added to each well and the wells were incubated at 37° C. for 10 min. Following incubation, the SFM+IBMX medium was removed from each well and fresh SFM+IBMX media was added to the wells separately with one of a) serotonin (1 μM final concentration); b) test compound (100 nM and 10 μM, to test for agonist activity); and c) test compound (100 nM and 10 μM) along with serotonin ([…], to test for antagonist activity). Basal adenyl cyclase activity was determined from wells with only SFM+IBMX media added.
The cells were then incubated at 37° C. for 30 minutes in a CO2 incubator. Following incubation, the media were removed from each well. The wells were washed once with 1 ml of PBS (phosphate buffered saline). Each well was then treated with 1 mL cold 95% ethanol:5 mM EDTA (2:1) at 4° C. for 1 hour. The cells from each well were then scraped and transferred into individual Eppendorf tubes. The tubes were centrifuged for 5 minutes at 4° C., and the supernatants were transferred to new Eppendorf tubes and stored at 4° C. The pellets were discarded and the supernatants were stored at 4° C. until assayed for cAMP concentration. cAMP content for each extract was determined in duplicate by EIA (enzyme-immunoassay) using the Amersham Biotrak cAMP EIA kit (Amersham RPN 225). Final results were expressed as % basal response for agonists and % reversal of serotonin response for antagonists.
The total stimulation of adenyl cyclase by serotonin (So) was determined as the difference in concentration of cAMP in the serotonin-treated cells (Cd) and the basal-treated cells (Cf).
The net stimulation (S) of basal adenyl cyclase by an agonist test compound was determined as the difference in cAMP concentration in the drug-treatedcell (C) and the basal-treated cells (Cf).
The net stimulation (Ss) of basal adenyl cyclase by serotonin in the presence of an antagonist test compound was determined as the difference in cAMP concentration in the serontonin-drug-treated cells (Cs) and the basal-treated cells (Cf).
The ability of the antagonist test compound to reverse the serotonin stimuation of adenyl cyclase activity (% reversal, % R) was determined by the formula: […]

human 5HT6 receptor [2] = molecular target: T1, human 5HT6 receptor; experiment: Binding affinity for the 5-HT6 receptor (3H-LSD displacement); parameters: expressed in transfected cells; conditions: 100 nM test compound; 3H-LSD (2 nM); 60 minute incubation at 37° C; read-out: percent inhibition of radioligand binding for the 5-HT6 receptor
Procedure: Binding Affinity for the 5-HT6 Receptor
The assay protocol generally entailed the incubation of membranes prepared from cells expressing the 5-HT6 receptor with ^3 H-LSD (2 nM). Increasing levels of the test compound were incubated with the radioligand and the membrane homogenates prepared from the recombinant cells. After a 60 minute incubation at 37° C., the incubation was terminated by vacuum filtration. The filters were washed with buffer and the filters were counted for radioactivity using liquid scintillation spectrometry. […] Concentrations ranging from 10^-11 M to 10^-5 M of the test compound were evaluated. […] Affinity for the 5-HT6 receptor is expressed as the amount (in percent) of binding of the radioligand that is inhibited in the presence of 100 nM of test compound. A greater percent inhibition indicates greater affinity for the 5-HT6 receptor.

5HT2C receptor = molecular target: T2, 5HT2C receptor (Homo sapiens, UniProt P28335); experiment: Binding to 5HT2C receptor (selectivity); conditions: selectivity versus 5-HT6; read-out: percent inhibition for the 5HT2C receptor
T2 sequence (P28335 33-458): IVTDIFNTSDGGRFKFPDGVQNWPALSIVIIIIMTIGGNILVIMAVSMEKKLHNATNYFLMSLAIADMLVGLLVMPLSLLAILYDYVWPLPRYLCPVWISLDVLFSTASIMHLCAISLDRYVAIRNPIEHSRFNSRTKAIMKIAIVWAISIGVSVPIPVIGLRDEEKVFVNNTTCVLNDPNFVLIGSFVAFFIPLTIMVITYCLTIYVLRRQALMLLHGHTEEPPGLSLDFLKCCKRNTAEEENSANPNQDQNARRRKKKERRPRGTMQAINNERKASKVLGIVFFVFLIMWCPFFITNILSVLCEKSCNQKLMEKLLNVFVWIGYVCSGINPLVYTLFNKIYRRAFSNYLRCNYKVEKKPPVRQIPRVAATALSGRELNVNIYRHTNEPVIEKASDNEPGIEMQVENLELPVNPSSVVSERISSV

5-HT7 receptor = 5-HT7 receptor (Homo sapiens, UniProt P34969); experiment: Binding to 5-HT7 receptor (selectivity); parameters: dose or concentration left out as unconfirmed; conditions: selectivity versus 5-HT6; read-out: percent inhibition for the 5-HT7 receptor
Chain of 5-HT7 receptor (P34969 whole entry): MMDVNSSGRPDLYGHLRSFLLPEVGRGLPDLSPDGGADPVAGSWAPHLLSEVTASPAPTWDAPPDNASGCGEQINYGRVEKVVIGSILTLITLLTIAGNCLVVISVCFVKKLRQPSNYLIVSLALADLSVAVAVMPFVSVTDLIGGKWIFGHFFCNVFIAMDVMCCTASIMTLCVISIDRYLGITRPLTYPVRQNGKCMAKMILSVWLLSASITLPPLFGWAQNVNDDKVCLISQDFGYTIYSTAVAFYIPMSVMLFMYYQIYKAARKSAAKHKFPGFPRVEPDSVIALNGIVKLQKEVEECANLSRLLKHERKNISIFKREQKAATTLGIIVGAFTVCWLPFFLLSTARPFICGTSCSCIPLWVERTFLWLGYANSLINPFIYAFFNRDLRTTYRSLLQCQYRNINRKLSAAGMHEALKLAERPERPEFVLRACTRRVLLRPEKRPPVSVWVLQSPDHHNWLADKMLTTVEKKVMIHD

5-HT2A receptor = 5-HT2A receptor (Homo sapiens, UniProt P28223); experiment: Binding to 5-HT2A receptor (selectivity); parameters: dose or concentration left out as unconfirmed; conditions: selectivity versus 5-HT6; read-out: percent inhibition for the 5-HT2A receptor
Chain of 5-HT2A receptor (P28223 whole entry): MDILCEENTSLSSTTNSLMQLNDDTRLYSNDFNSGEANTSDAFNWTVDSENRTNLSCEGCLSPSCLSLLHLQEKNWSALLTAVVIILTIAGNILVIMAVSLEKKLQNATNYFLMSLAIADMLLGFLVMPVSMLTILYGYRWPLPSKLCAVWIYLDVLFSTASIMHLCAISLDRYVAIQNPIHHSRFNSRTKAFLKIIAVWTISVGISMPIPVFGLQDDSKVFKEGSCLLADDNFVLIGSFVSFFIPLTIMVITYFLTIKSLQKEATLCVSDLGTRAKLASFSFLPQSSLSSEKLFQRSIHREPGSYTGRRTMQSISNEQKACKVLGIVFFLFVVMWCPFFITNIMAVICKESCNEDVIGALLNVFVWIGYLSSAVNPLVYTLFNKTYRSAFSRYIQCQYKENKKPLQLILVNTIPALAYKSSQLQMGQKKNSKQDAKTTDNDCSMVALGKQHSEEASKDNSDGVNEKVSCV

Row | SMILES | reversal of serotonin stimulation of adenyl cyclase (5-HT6 receptor antagonism) (human 5HT6 receptor [1]) | inhibition at 0.1 µM (human 5HT6 receptor [2]) [%] | inhibition at 0.1 µM (5HT2C receptor) [%] | inhibition (5-HT7 receptor) [%] | inhibition (5-HT2A receptor) [%]
1 | O=S(=O)(c1ccccc1)n1cc(C2CCN3CCCC3C2)c2cc(F)ccc21 (single isomer, unassigned; isomer ii) [Example 10d, 5-Fluoro-3-[(7R or 7S)(8a-R,S)-octahydrohydro-7-indolizinyl]-1-phenylsulfonylindole, Isomer II] | able to reverse the serotonin stimulation of adenyl cyclase |  |  |  | 
2 | O=S(=O)(c1ccc(Br)cc1)n1cc(C2=CCN3CCCC3C2)c2cc(F)ccc21 (racemic) [Example 6bb, 1-(4-Bromophenylsulfonyl)-5-fluoro-3-[(8a-R,S)-1,2,3,5,8,8a-hexahydro-7-indolizinyl]indole] |  | > 80 | < 20 | < 20 | < 20
3 | CC(C)(C)c1ccc(S(=O)(=O)n2cc(C3=CCN4CCCC4C3)c3cc(F)ccc32)cc1 (racemic) [Example 6gg, 1-(4-t-Butylphenylsulfonyl)-5-fluoro-3-[(8a-R,S)-1,2,3,5,8,8a-hexahydro-7-indolizinyl]indole] |  | > 80 | < 20 | < 20 | < 20
4 | Cc1ccc(S(=O)(=O)n2cc(C3=CCN4CCCC4C3)c3cc(F)ccc32)cc1 (racemic) [Example 6dd, 5-Fluoro-3-[(8a-R,S)-1,2,3,5,8,8a-hexahydro-7-indolizinyl]-1-(4-methylphenylsulfonyl)indole] |  | > 80 | < 20 | < 20 | < 20
5 | Cc1ccc2c(c1)c(C1=CCN3CCCC3C1)cn2S(=O)(=O)c1ccccc1 (racemic) [Example 6pp, 5-Methyl-3-[(8a-R,S)-1,2,3,5,8,8a-hexahydro-7-indolizinyl]-1-phenylsulfonylindole] |  | > 80 | < 20 | < 20 | < 20
6 | O=S(=O)(c1ccc2ccccc2c1)n1cc(N2CCN3CCCCC3C2)c2ccccc21 (racemic) [Example 6l, 3-[(6-R,S)-1,4-Diaza[4.4. 0]bicyclodecan-4-yl]-1-(2-naphthalenesulfonyl)indole] |  | > 80 | < 20 | < 20 | < 20
7 | COc1ccc2c(c1)c(C1=CCN3CCCC3C1)cn2S(=O)(=O)c1ccccc1 (racemic) [Example 6mm, 5-Methoxy-3-[(8a-R,S)-1,2,3,5,8,8a-hexahydro-7-indolizinyl]-1-phenylsulfonylindole] |  | > 80 | < 20 | < 20 | < 20
8 | COc1ccc2c(c1)c(C1=CCN3CCCC3C1)cn2S(=O)(=O)c1ccc2ccccc2c1 (racemic) [Example 6oo, 5-Methoxy-3-[(8a-R,S)-1,2,3,5,8,8a-hexahydro-7-indolizinyl]-2-naphthalenesulfonylindole] |  | > 80 | < 20 | < 20 | < 20
9 | Cc1ccc2c(c1)c(C1=CCN3CCCC3C1)cn2S(=O)(=O)c1ccc2ccccc2c1 (racemic) [Example 6rr, 5-Methyl-3-[(8a-R,S)-1,2,3,5,8,8a-hexahydro-7-indolizinyl]-2-naphthalenesulfonylindole] |  | > 80 | < 20 | < 20 | < 20
10 | O=S(=O)(c1cc(Cl)ccc1Cl)n1cc(C2=CCN3CCCC3C2)c2cc(F)ccc21 (racemic) [Example 6hh, 1-(2,5-Dichlorophenylsulfonyl)-5-fluoro-3-[(8a-R,S)-1,2,3,5,8,8a-hexahydro-7-indolizinyl]indole] |  | > 80 | < 20 | < 20 | < 20
11 | O=S(=O)(c1ccc(Cl)cc1)n1cc(N2CCN3CCCCC3C2)c2ccccc21 (racemic) [Example 6p, 1-(4-Chlorophenylsulfonyl)-3-[(6-R,S)-1,4-diaza[4.4. 0]bicyclodecan-4-yl]indole] |  | > 80 | < 20 | < 20 | < 20
12 | O=S(=O)(c1ccc(Br)cc1)n1cc(N2CCN3CCCCC3C2)c2ccccc21 (racemic) [Example 6n, 1-(4-Bromophenylsulfonyl)-3-[(6-R,S)-1,4-diaza[4.4. 0]bicyclodecan-4-yl]indole] |  | > 80 | < 20 | < 20 | < 20
13 | COc1ccc(S(=O)(=O)n2cc(C3=CCN4CCCC4C3)c3cc(F)ccc32)cc1 (racemic) [Example 6ee, 5-Fluoro-3-[(8a-R,S)-1,2,3,5,8,8a-hexahydro-7-indolizinyl]-1-(4-methoxyphenylsulfonyl)indole] |  | > 80 | < 20 | < 20 | < 20
14 | O=S(=O)(c1ccc(F)cc1)n1cc(C2=CCN3CCCC3C2)c2cc(F)ccc21 (racemic) [Example 6aa, 5-Fluoro-1-(4-fluorophenylsulfonyl)-3-[(8a-R,S)-1,2,3,5,8,8a-hexahydro-7-indolizinyl]indole] |  | > 80 | < 20 | < 20 | < 20
15 | O=S(=O)(c1ccccc1Br)n1cc(C2=CCN3CCCC3C2)c2cc(F)ccc21 (racemic) [Example 6cc, 1-(2-Bromophenylsulfonyl)-5-fluoro-3-[(8a-R,S)-1 ,2,3,5,8,8a-hexahydro-7-indolizinyl]indole] |  | > 80 | < 20 | < 20 | < 20
16 | O=S(=O)(c1cccc2ccccc12)n1cc(N2CCN3CCCCC3C2)c2ccccc21 (racemic) [Example 6m, 3-[(6-R,S)-1,4-Diaza[4.4. 0]bicyclodecan-4-yl]-1-(1-naphthalenesulfonyl)indole] |  | > 80 | < 20 | < 20 | < 20
17 | O=S(=O)(c1ccccc1)n1cc(C2=CCN3CCCC3C2)c2cc(F)cc(F)c21 (racemic) [Example 6jj, 5,7-Difluoro-3-[(8a-R,S)-1,2,3,5,8,8a-hexahydro-7-indolizinyl]-1-phenylsulfonylindole] |  | > 80 | < 20 | < 20 | < 20
